Measurements taken from US10780090B2, “Heteroaryl compounds useful as inhibitors of SUMO activating enzyme” (Millennium Pharmaceuticals, Inc., priority 2014, dated 2020).
Where two headings read alike, the source gives them in different places.

Molecular target: recombinant human SAE enzyme (Homo sapiens (Human), UniProt Q9UBT2)
Assay: SAE HTRF enzyme assay
Assay type: biochemical
Conditions: for inhibition at 0.111 µM: read-out: Percent Inhibition
How it was run: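 This HTRF format monitors Sumo-Flag–Ubc9-GST thioester formation catalysed by 0.11 nM human SAE with 0.5 μM ATP over 105 min at 24° C. Inhibition is expressed at a single concentration or as IC50.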

[1] = SAE inhibition at compound concentration 0.111 μM
[2] = SAE inhibition, class symbols, legend in nM

recombinant human SAE enzyme, sequence (Q9UBT2 whole entry): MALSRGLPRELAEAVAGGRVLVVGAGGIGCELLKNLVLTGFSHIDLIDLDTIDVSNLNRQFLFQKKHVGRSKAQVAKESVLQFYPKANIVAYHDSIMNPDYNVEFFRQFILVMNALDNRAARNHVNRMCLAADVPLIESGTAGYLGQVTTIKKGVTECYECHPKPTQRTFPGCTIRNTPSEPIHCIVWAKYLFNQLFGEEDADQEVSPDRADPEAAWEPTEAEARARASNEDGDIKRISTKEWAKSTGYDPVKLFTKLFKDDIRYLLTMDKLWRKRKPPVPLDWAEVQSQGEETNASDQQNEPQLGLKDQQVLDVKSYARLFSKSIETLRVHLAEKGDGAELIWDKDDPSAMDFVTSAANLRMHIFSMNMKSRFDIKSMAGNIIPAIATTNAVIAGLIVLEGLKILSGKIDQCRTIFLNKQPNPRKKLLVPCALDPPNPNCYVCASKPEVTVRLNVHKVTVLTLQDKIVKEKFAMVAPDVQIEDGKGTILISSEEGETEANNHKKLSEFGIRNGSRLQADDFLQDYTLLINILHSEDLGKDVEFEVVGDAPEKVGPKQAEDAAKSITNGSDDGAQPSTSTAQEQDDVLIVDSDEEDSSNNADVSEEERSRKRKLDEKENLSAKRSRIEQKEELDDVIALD
recombinant human SAE enzyme, sequence (Q9UBE0 whole entry partner): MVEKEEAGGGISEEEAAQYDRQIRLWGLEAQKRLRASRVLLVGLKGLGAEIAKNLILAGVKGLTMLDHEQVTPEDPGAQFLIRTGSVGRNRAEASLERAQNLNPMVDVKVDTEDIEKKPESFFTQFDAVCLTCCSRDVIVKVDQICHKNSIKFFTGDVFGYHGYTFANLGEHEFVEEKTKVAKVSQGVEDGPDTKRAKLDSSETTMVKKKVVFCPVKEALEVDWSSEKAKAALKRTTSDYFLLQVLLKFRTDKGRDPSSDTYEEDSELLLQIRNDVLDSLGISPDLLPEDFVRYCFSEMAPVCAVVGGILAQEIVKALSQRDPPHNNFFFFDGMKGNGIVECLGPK

Row | Compound | inhibition at 0.111 µM (Concentration 0.111 μM) | IC50 (class symbols A/B/C) | Percent Inhibition (Concentration 0.111 μM) | further results
1 | Cc1sc(C(=O)c2cncnc2N[C@@H]2C[C@H](COS(N)(=O)=O)[C@@H](OC(=O)Cc3ccc(OP(=O)(O)O)cc3)C2)cc1[C@@H]1OCCc2ccc(Cl)cc21 [I-364, [(1S,2R,4R)-4-[[5-[4-[(1R)-7-chloroisochroman-1-yl]-5-methyl-thiophene-2-carbonyl]pyrimidin-4-yl]amino]-2-(sulfamoyloxymethyl)cyclopentyl] 2-(4-phosphonooxyphenyl)acetate] | – | – | – | inhibition at 0.111 µM [1]: 13%
2 | NS(=O)(=O)OC[C@H]1C[C@@H](Nc2ncncc2C(=O)c2cc(CN3CCC(F)(F)C3)cs2)C[C@@H]1O [I-228, [(1R,2S,4R)-4-{[5-({4-[(3,3-Difluoropyrrolidin-1-yl)methyl]-2-thienyl}carbonyl)pyrimidin-4-yl]amino}-2-hydroxycyclopentyl]methyl sulfamate] | 29% | 100 to 1000 nM | – | –
3 | Cc1cccc(Cc2coc(C(=O)c3cncnc3N[C@@H]3C[C@H](COS(N)(=O)=O)[C@@H](O)C3)c2)c1 [I-57, [(1R,2S,4R)-2-hydroxy-4-({5-[4-(3-methylbenzyl)-2-furoyl]pyrimidin-4-yl}amino)cyclopentyl]methyl sulfamate] | 98% | – | – | –
4 | Cc1cc(Cc2cccc(Cl)c2)sc1C(=O)c1cncnc1N[C@@H]1C[C@H](COS(N)(=O)=O)[C@@H](O)C1 [I-233, {(1R,2S,4R)-4-[(5-{[5-(3-Chlorobenzyl)-3-methyl-2-thienyl]carbonyl}pyrimidin-4-yl)amino]-2-hydroxycyclopentyl}methyl sulfamate] | 22% | 100 to 1000 nM | – | –
5 | NS(=O)(=O)OC[C@H]1C[C@@H](Nc2ncncc2C(=O)c2cc(Cc3cccc(Cl)c3)c([C@@H]3CCCO3)s2)C[C@@H]1O (single isomer, unassigned) [I-41a, [(1R,2S,4R)-4-{[5-({4-(3-chlorobenzyl)-5-[(2S)-tetrahydrofuran-2-yl]-2-thienyl}carbonyl)pyrimidin-4-yl]amino}-2-hydroxycyclopentyl]methyl sulfamate or [(1R,2S,4R)-4-{[5-({4-(3-chlorobenzyl)-5-[(2R)-tetrahydrofuran-2-yl]-2-thienyl}carbonyl)pyrimidin-4-yl]amino}-2-hydroxycyclopentyl]methyl sulfamate] | – | < 10 nM | 98 | –
6 | NS(=O)(=O)OC[C@H]1C[C@@H](Nc2ncncc2C(=O)c2cc([C@@H]3OCCc4cnc(Cl)cc43)c(Cl)s2)C[C@@H]1O (mixture of isomers) [I-323, [(1R,2S,4R)-4-{[5-({5-chloro-4-[(1R)-7-chloro-3,4-dihydro-1H-pyrano[4,3-c]pyridin-1-yl]-2-thienyl}carbonyl)pyrimidin-4-yl]amino}-2-hydroxycyclopentyl]methyl sulfamate and [(1R,2S,4R)-4-{[5-({5-chloro-4-[(1S)-7-chloro-3,4-dihydro-1H-pyrano[4,3-c]pyridin-1-yl]-2-thienyl}carbonyl)pyrimidin-4-yl]amino}-2-hydroxycyclopentyl]methyl sulfamate] | – | – | – | Percent Inhibition [1]: 90%; IC50 [2]: 10 to 100 nM
7 | NS(=O)(=O)OCC1CC(Nc2ncncc2C(=O)c2cc(C(O)(CCO)c3cccc(Cl)c3)c(Cl)s2)CC1O (mixture of isomers) [I-49, [(1R,2S,4R)-4-{[5-({5-Chloro-4-[(1S)-1-(3-chlorophenyl)-1,3-dihydroxypropyl]-2-thienyl}carbonyl)pyrimidin-4-yl]amino}-2-hydroxycyclopentyl]methyl sulfamate and [(1R,2S,4R)-4 {[5-({5-Chloro-4[(1R)-1-(3-chlorophenyl)-1,3-dihydroxypropyl]-2-thienyl}carbonyl)pyrimidin-4-yl]amino}-2-hydroxycyclopentyl]methyl sulfamate] | – | < 10 nM | 98 | –
8 | NS(=O)(=O)OC[C@H]1C[C@@H](Nc2ncncc2C(=O)c2cc([C@H](O)c3cccc(Cl)c3)co2)C[C@@H]1O (single isomer, unassigned) [I-42b, {(1R,2S,4R)-4-[(5-{4-[(R)-(3-chlorophenyl)(hydroxy)methyl]-2-furoyl}pyrimidin-4-yl)amino]-2-hydroxycyclopentyl}methyl sulfamate or {(1R,2S,4R)-4-[(5-{4-[(S)-(3-chlorophenyl)(hydroxy)methyl]-2-furoyl}pyrimidin-4-yl)amino]-2-hydroxycyclopentyl}methyl sulfamate] | – | < 10 nM | 99 | –
9 | COc1ccc2c(n1)[C@H](c1cc(C(=O)c3cncnc3N[C@@H]3C[C@H](COS(N)(=O)=O)[C@@H](O)C3)sc1C)OCC2 (single isomer, unassigned) [I-339a, [(1R,2S,4R)-2-hydroxy-4-{[5-({4-[(8S)-2-methoxy-5,8-dihydro-6H-pyrano[3,4-b]pyridin-8-yl]-5-methyl-2-thienyl}carbonyl)pyrimidin-4-yl]amino}cyclopentyl]methyl sulfamate or [(1R,2S,4R)-2-hydroxy-4-{[5-({4-[(8R)-2-methoxy-5,8-dihydro-6H-pyrano[3,4-b]pyridin-8-yl]-5-methyl-2-thienyl}carbonyl)pyrimidin-4-yl]amino}cyclopentyl]methyl sulfamate] | – | – | – | Percent Inhibition [1]: 99%; IC50 [2]: < 10 nM
10 | Cc1sc(C(=O)c2cncnc2N[C@@H]2C[C@H](COS(N)(=O)=O)[C@@H](O)C2)cc1[C@H](N)c1cccc(Cl)c1 (single isomer, unassigned) [I-6b, [(1R,2S,4R)-4-{[5-({4-[(R)-amino(3-chlorophenyl)methyl]-5-methyl-2-thienyl}carbonyl)pyrimidin-4-yl]amino}-2-hydroxycyclopentyl]methyl sulfamate or [(1R,2S,4R)-4-{[5-({4-[(S)-amino(3-chlorophenyl)methyl]-5-methyl-2-thienyl}carbonyl)pyrimidin-4-yl]amino}-2-hydroxycyclopentyl]methyl sulfamate] | – | < 10 nM | 98 | –
11 | CN[C@H](c1cccc(Cl)c1)c1csc(C(=O)c2cncnc2N[C@@H]2C[C@H](COS(N)(=O)=O)[C@@H](O)C2)c1 (single isomer, unassigned) [I-47a, [(1R,2S,4R)-4-{[5-({4-[(R)-(3-chlorophenyl)(methylamino)methyl]-2-thienyl}carbonyl)pyrimidin-4-yl]amino}-2-hydroxycyclopentyl]methyl sulfamate or [(1R,2S,4R)-4-{[5-({4-[(S)-(3-chlorophenyl)(methylamino)methyl]-2-thienyl}carbonyl)pyrimidin-4-yl]amino}-2-hydroxycyclopentyl]methyl sulfamate] | – | < 10 nM | 99 | –
12 | NS(=O)(=O)OC[C@H]1C[C@@H](Nc2ncncc2C(=O)c2cc(Cc3ccccc3Cl)cs2)C[C@@H]1O [I-165, {(1R,2S,4R)-4-[(5-{[4-(2-chlorobenzyl)-2-thienyl]carbonyl}pyrimidin-4-yl)amino]-2-hydroxycyclopentyl}methyl sulfamate] | 91% | 10 to 100 nM | – | –
13 | N#Cc1ccccc1OCc1csc(C(=O)c2cncnc2N[C@@H]2C[C@H](COS(N)(=O)=O)[C@@H](O)C2)c1 [I-124, [(1R,2S,4R)-4-{[5-({4-[(2-cyanophenoxy)methyl]-2-thienyl}carbonyl)pyrimidin-4-yl]amino}-2-hydroxycyclopentyl]methyl sulfamate] | 97% | < 10 nM | – | –
14 | NS(=O)(=O)OC[C@H]1C[C@@H](Nc2ncncc2C(=O)c2ccc([C@@H]3OCCCc4ccc(Cl)cc43)s2)C[C@@H]1O (single isomer, unassigned) [I-343b, [(1R,2S,4R)-4-{[5-({5-[(1R)-8-chloro-1,3,4,5-tetrahydro-2-benzoxepin-1-yl]-2-thienyl}carbonyl)pyrimidin-4-yl]amino}-2-hydroxycyclopentyl]methyl sulfamate or [(1R,2S,4R)-4-{[5-({5-[(1S)-8-chloro-1,3,4,5-tetrahydro-2-benzoxepin-1-yl]-2-thienyl}carbonyl)pyrimidin-4-yl]amino}-2-hydroxycyclopentyl]methyl sulfamate] | – | – | – | Percent Inhibition [1]: 84%; IC50 [2]: 10 to 100 nM
15 | NS(=O)(=O)OC[C@H]1C[C@@H](Nc2ncncc2C(=O)c2cc(Sc3cccc(C(F)(F)F)c3)c(Cl)s2)C[C@@H]1O [I-189, [(1R,2S,4R)-4-({5-[(5-chloro-4-{[3-(trifluoromethyl)phenyl]sulfanyl}-2-thienyl)carbonyl]pyrimidin-4-yl}amino)-2-hydroxycyclopentyl]methyl sulfamate] | 78% | 10 to 100 nM | – | –
16 | Cc1oc(C(=O)c2cncnc2N[C@@H]2C[C@H](COS(N)(=O)=O)[C@@H](O)C2)cc1C1OCCc2ccccc21 (single isomer, unassigned) [I-272b, {(1R,2S,4R)-4-[(5-{4-[(1R)-3,4-dihydro-1H-isochromen-1-yl]-5-methyl-2-furoyl}pyrimidin-4-yl)amino]-2-hydroxycyclopentyl}methyl sulfamate or {(1R,2S,4R)-4-[(5-{4-[(1S)-3,4-dihydro-1H-isochromen-1-yl]-5-methyl-2-furoyl}pyrimidin-4-yl)amino]-2-hydroxycyclopentyl}methyl sulfamate] | – | < 10 nM | 97 | –
17 | NS(=O)(=O)OC[C@H]1C[C@@H](Nc2ncncc2C(=O)c2cc(C3SCCc4ccc(Cl)cc43)cs2)[C@H](O)[C@@H]1O (single isomer, unassigned) [I-278a, [(1R,2R,3S,4R)-4-{[5-({4-[(1R)-7-chloro-3,4-dihydro-1H-isothiochromen-1-yl]-2-thienyl}carbonyl)pyrimidin-4-yl]amino}-2,3-dihydroxycyclopentyl]methyl sulfamate or [(1R,2R,3S,4R)-4-{[5-({4-[(1S)-7-chloro-3,4-dihydro-1H-isothiochromen-1-yl]-2-thienyl}carbonyl)pyrimidin-4-yl]amino}-2,3-dihydroxycyclopentyl]methyl sulfamate] | – | 10 to 100 nM | 77 | –
